Test results: patent US10342774B2, “Topical pharmaceutical composition of acitretin” (priority 2013, dated 2019)
≈ marks a conversion by molar mass, not a printed value.

Test: physchem
Conditions: 25 °C, organic solvent or mixture, thermodynamic from solid
Experimental: The saturation solubility of acitretin was determined by adding an excess amount of acitretin in a conical flask containing a mixture of diethylene glycol monoethyl ether, dimethyl isosorbide, and polysorbate 80, present in a w/w ratio of 3.3:24.1:1. The mixture was kept in a shaking water bath for 24 hours at 25° C.

SMILES: COc1cc(C)c(/C=C/C(C)=C/C=C/C(C)=C/C(=O)O)c(C)c1C [acitretin, all-trans-9-(4-methoxy-2,3,6-trimethylphenyl)-3,7-dimethyl-2,4,6,8-nonatetraenoic acid]
- solubility at 24 h: 2500 µg/mL (≈ 7.66 mM)
